{"source": "patent US10723764B2", "about": "“Anti-microbial peptides and methods of use thereof” (priority 2011, dated 2020)", "key": {"chymotrypsin": {"target": "chymotrypsin (Bos taurus, UniProt P00766)", "experimental": "One of the hurdles in developing peptide-based antimicrobials is peptide stability to protease (Wang, G. (2010) Antimicrobial Peptides: Discovery, Design and Novel Therapeutic Strategies, CABI, England). […] This was done by modifying the standard microdilution antimicrobial assays (Wang, G. (2008) J. Biol. Chem., 283:32637-32643). Specifically, the bacterial wells with a high peptide concentration (e.g. 100 μM) are duplicated (e.g., two for antimicrobial assays and two for protease stability assays). As an illustration, chymotrypsin was applied to the duplicated wells at a peptide:protease molar ratio of 25:1. Numerous peptides were screened in this manner.\nTo identify protease-resistant peptide templates, 30 synthetic peptides were screened (Table 9; Wang et al. (2008) Antimicrob. Agents Chemother., 52:3438-3440). A standard microdilution assay protocol (Li et al. (2006) J. Am. Chem. Soc., 128:5776-5785) was modified to include proteases into the duplicated wells with high concentrations of peptide so that both antimicrobial activity and protease stability could be evaluated simultaneously. […] (peptide:protease molar ratio of 40:1)."}, "human erythrocytes": {"system": "human erythrocytes", "conditions": "human red blood cells; Table 6", "experimental": "Peptide hemolysis was assayed using an established protocol (Malmsten et al. (2011) PLoS One 6:e16400). In brief, fresh blood, obtained from the UNMC Blood Bank, was washed three times with PBS buffer and made into a 5% solution. To 90 μL of this solution, 10 μL of a peptide solution was added and incubated at 37° C. for one hour. After centrifugation at 13,000 rpm, aliquots of the supernatant were transferred to a fresh 96 well microplate. The absorbance of the solutions was measured at 545 nm to detect the amount of hemoglobin released. The percent lysis was calculated by assuming 100% release when treated with 2% Triton X-100 and no lysis (0%) when treated with PBS buffer. HL50 was the peptide concentration that caused 50% lysis of human erythrocytes. The cell selectivity (CS) indexes were calculated as the ratio of HL50 to the MIC of the peptide against S. aureus USA300.\nThe hemolytic effects of the six peptides were also compared on human red blood cells (hRBC) using an established protocol (Malmsten et al. (2011) PLoS One 6:e16400). […] A high TI indicates good cell selectivity.\nPeptide hemolysis was assayed using an established protocol (Menousek et al. (2012) Int. J. Antimicrob. Agents 39:402-406; Malmsten et al. (2011) PLoS One 6:e16400). Briefly, blood cells were washed three times with phosphate-buffered saline (PBS) and were diluted to a 5% solution. Following peptide treatment, incubation at 37° C. for 1 hour and centrifugation at 13,000 rpm, aliquots of the supernatant were transferred to a fresh 96-well microplate. To assess peptide cytotoxicity, the amount of hemoglobin released was measured at 545 nm. Percent lysis was calculated by assuming 100% release when human blood cells were treated with 2% Triton X-100 and 0% release when they were incubated with PBS buffer."}, "[1]": {"system": "methicillin-resistant Staphylococcus aureus USA300 LAC", "conditions": "S. aureus USA300; Table 5 screen", "description": "The bacterial strains used in the study are Bacillus subtilis 168, methicillin-resistant Staphylococcus aureus USA300 LAC (Gram-positive), Escherichia coli K12, and Pseudomonas aeruginosa PAO1 (Gram negative). The antibacterial activities of the peptides were determined using the standard broth microdilution method (Wang et al. (2005) J. Biol. Chem., 280:5803-5811). In brief, the bacterial culture (90 μL) was treated with a series of peptide solutions (10 μL), each with two-fold dilution. After overnight incubation at 37° C., the microplate was read on a ChroMate® 4300 Microplate Reader at 630 nm (GMI, Ramsey, Minn.).\n(§1) For the initial screen, antimicrobial activities of these peptides against S. aureus and E. coli were evaluated using the standard broth microdilution protocol (Wang, G. (2008) J. Biol. Chem., 283:32637-43).\nThe antibacterial activities of the peptides were determined using the standard broth microdilution method (Mishra et al. (2012) J. Am. Chem. Soc., 134:12426-12429; Wang et al. (2005) Biol. Chem., 280:5803-5811). Briefly, the bacterial culture was treated with a series of peptide solutions, each with two-fold dilution. After overnight incubation at 37° C., the microplate was read on a ChroMate® 4300 Microplate Reader at 630 nm (GMI, Ramsey, Minn.)."}, "Escherichia coli K12": {"system": "Escherichia coli K12", "conditions": "E. coli K12; Table 5 screen", "description": "The antibacterial activities of the peptides were determined using the standard broth microdilution method (Wang et al. (2005) J. Biol. Chem., 280:5803-5811). In brief, the bacterial culture (90 μL) was treated with a series of peptide solutions (10 μL), each with two-fold dilution. After overnight incubation at 37° C., the microplate was read on a ChroMate® 4300 Microplate Reader at 630 nm (GMI, Ramsey, Minn.).\nas §1"}, "Gram-positive bacteria": {"system": "Gram-positive bacteria", "parameters": "key: Y, Yes; N, No", "conditions": "data from the APD; cited from earlier work"}, "Gram-negative bacteria": {"system": "Gram-negative bacteria", "parameters": "key: Y, Yes; N, No", "conditions": "data from the APD; cited from earlier work"}, "[2]": {"conditions": "E. coli K12 growth with chymotrypsin, peptide:protease molar ratio 25:1"}, "[3]": {"conditions": "antimicrobial assay with chymotrypsin, peptide:protease molar ratio 40:1, E. coli K12 for peptides inactive against S. aureus"}}, "note": "Like-named read-outs stand apart in the source and are kept apart here. Marks after values point to notes of the source that are not given here. Where a SMILES comes first, the peptide text is derived from it. Where no end group is shown, it is not given here. [ ]: non-standard residue; d: D form."}
{"compound": "CC[C@@H](C)[C@@H](NC(=O)[C@H](CCCNC(=N)N)NC(=O)[C@H](CCC(N)=O)NC(=O)[C@@H](NC(=O)[C@H](NC(=O)[C@H](CCCNC(=N)N)NC(=O)[C@H](CCCCN)NC(=O)[C@H](Cc1ccccc1)NC(=O)CN)[C@H](C)CC)C(C)C)C(=O)N[C@@H](CCCCN)C(=O)N[C@@H](CC(=O)O)C(=O)N[C@@H](Cc1ccccc1)C(=O)N[C@H](CC(C)C)C(=O)N[C@@H](CCCNC(=N)N)C(=O)N[C@@H](CC(N)=O)C(=O)N[C@@H](CC(C)C)C(=O)N[C@H](C(N)=O)C(C)C", "note": "[GF-17d3] (H-GFKR[dI]VQR[dI]KDF[dL]RNLV-NH2; N-terminus assumed)", "values": [{"measurement": "Stability (to chymotrypsin)", "setting": "chymotrypsin; [2]", "value": "+"}, {"measurement": "Stability (to chymotrypsin)", "setting": "chymotrypsin; [3]", "value": "+^c"}]}
{"compound": "EKIGKEFKRIVQRIKDFLRN [EK-20]", "values": [{"measurement": "Stability (to chymotrypsin)", "setting": "chymotrypsin; [3]", "value": "−"}]}
{"compound": "FFGKVLKLIRKIF-NH2 [DASamP1]", "values": [{"measurement": "HL50 (μM), concentration at which 50% red blood cells are lysed", "setting": "human erythrocytes", "value": 25, "unit": "µM"}]}
{"compound": "FFHHIFRGIVHVGKTIHRLVTG [Piscidin 1, reference compound]", "values": [{"measurement": "HL50 (μM), concentration at which 50% red blood cells are lysed", "setting": "human erythrocytes", "value": 20, "unit": "µM"}]}
{"compound": "FKRIVQRIKDFLRNLVPRTE [FK-21]", "values": [{"measurement": "Stability (to chymotrypsin)", "setting": "chymotrypsin; [3]", "value": "−"}]}
{"compound": "GFKDLLKGAAKALVKTVLF-NH2 [Ascaphin-8, reference compound]", "values": [{"measurement": "HL50 (μM), concentration at which 50% red blood cells are lysed", "setting": "human erythrocytes", "value": 45, "unit": "µM"}]}
{"compound": "GFKRIVQRIKDFLRNL-NH2 [GF-16]", "values": [{"measurement": "Stability (to chymotrypsin)", "setting": "chymotrypsin; [3]", "value": "−"}]}
{"compound": "GFKRIVQRIKDFLRNLV-NH2 [GF-17]", "values": [{"measurement": "Stability (to chymotrypsin)", "setting": "chymotrypsin; [2]", "value": "−"}, {"measurement": "Stability (to chymotrypsin)", "setting": "chymotrypsin; [3]", "value": "−"}]}
{"compound": "GFLSILKKVLPKVMAHMK-NH2 [Melectin, reference compound]", "values": [{"measurement": "MICs (μM) SA", "setting": "[1]", "value": "12.5 to 25", "unit": "µM"}, {"measurement": "MICs (μM) EC", "setting": "Escherichia coli K12", "value": "12.5 to 25", "unit": "µM"}]}
{"compound": "GKEFKRIVQRIKDFLRNLVPR [GK-21]", "values": [{"measurement": "Stability (to chymotrypsin)", "setting": "chymotrypsin; [2]", "value": "−"}, {"measurement": "Stability (to chymotrypsin)", "setting": "chymotrypsin; [3]", "value": "−"}]}
{"compound": "GKPRPYSPRPTSHPRPIRV [Drosocin, reference compound]", "values": [{"measurement": "MICs (μM) SA", "setting": "[1]", "value": ">100", "unit": "µM"}, {"measurement": "MICs (μM) EC", "setting": "Escherichia coli K12", "value": ">100", "unit": "µM"}]}
{"compound": "GLLGLLGSVVSHVVPAIVGHF-NH2 [Maculatin 1.3, reference compound]", "values": [{"measurement": "HL50 (μM), concentration at which 50% red blood cells are lysed", "setting": "human erythrocytes", "value": 25, "unit": "µM"}]}
{"compound": "GNNRPVYIPQPRPPHPRI [Apidaecin IA, reference compound]", "values": [{"measurement": "MICs (μM) SA", "setting": "[1]", "value": ">100", "unit": "µM"}, {"measurement": "MICs (μM) EC", "setting": "Escherichia coli K12", "value": ">100", "unit": "µM"}]}
{"compound": "GRFKRFRKKFKKLFKKLS-NH2 [BMAP-18]", "values": [{"measurement": "Stability (to chymotrypsin)", "setting": "chymotrypsin; [3]", "value": "−"}]}
{"compound": "HVDKKVADKVLLLKQLRIMRLLTRL [Spinigerin, reference compound]", "values": [{"measurement": "MICs (μM) SA", "setting": "[1]", "value": ">81", "unit": "µM"}, {"measurement": "MICs (μM) EC", "setting": "Escherichia coli K12", "value": ">81", "unit": "µM"}]}
{"compound": "IKWKKLLRAAKRIL-NH2 [DASamP2]", "values": [{"measurement": "HL50 (μM), concentration at which 50% red blood cells are lysed", "setting": "human erythrocytes", "value": 75, "unit": "µM"}]}
{"compound": "IWLTALKFLGKHAAKHLAKQQLSKL [Lycotoxin I, reference compound]", "values": [{"measurement": "HL50 (μM), concentration at which 50% red blood cells are lysed", "setting": "human erythrocytes", "value": 125, "unit": "µM"}]}
{"compound": "KIGKEFKRIVQRIKDFLRNLVP [KI-22]", "values": [{"measurement": "Stability (to chymotrypsin)", "setting": "chymotrypsin; [2]", "value": "−"}, {"measurement": "Stability (to chymotrypsin)", "setting": "chymotrypsin; [3]", "value": "−"}]}
{"compound": "RPKHPIKHQGLPQEVLNENLLRF [Isracidin, reference compound]", "values": [{"measurement": "MICs (μM) SA", "setting": "[1]", "value": ">100", "unit": "µM"}, {"measurement": "MICs (μM) EC", "setting": "Escherichia coli K12", "value": ">100", "unit": "µM"}]}
{"compound": "RQRVEELSKFSKKGAAARRRK [Misgurin, reference compound]", "values": [{"measurement": "MICs (μM) SA", "setting": "[1]", "value": ">84", "unit": "µM"}, {"measurement": "MICs (μM) EC", "setting": "Escherichia coli K12", "value": ">84", "unit": "µM"}]}
{"compound": "Temporin A: temporin, APD ID 94, SEQ ID NO: 14 (FLPLIGRVLSGIL; listed as Rana temporaria)", "values": [{"measurement": "Activity G+ (activity against Gram-positive bacteria)", "setting": "Gram-positive bacteria", "value": "Y"}, {"measurement": "Activity G− (activity against Gram-negative bacteria)", "setting": "Gram-negative bacteria", "value": "N"}]}
{"compound": "Temporin B: temporin, APD ID 95, SEQ ID NO: 19 (LLPIVGNLLKSLL; listed as Rana temporaria)", "values": [{"measurement": "Activity G+ (activity against Gram-positive bacteria)", "setting": "Gram-positive bacteria", "value": "Y"}, {"measurement": "Activity G− (activity against Gram-negative bacteria)", "setting": "Gram-negative bacteria", "value": "N"}]}
{"compound": "Temporin C: temporin, APD ID 96, SEQ ID NO: 21 (LLPILGNLLNGLL; listed as Rana temporaria)", "values": [{"measurement": "Activity G+ (activity against Gram-positive bacteria)", "setting": "Gram-positive bacteria", "value": "Y"}, {"measurement": "Activity G− (activity against Gram-negative bacteria)", "setting": "Gram-negative bacteria", "value": "N"}]}
{"compound": "Temporin E: temporin, APD ID 97, SEQ ID NO: 16 (VLPIIGNLLNSLL; listed as Rana temporaria)", "values": [{"measurement": "Activity G+ (activity against Gram-positive bacteria)", "setting": "Gram-positive bacteria", "value": "Y"}, {"measurement": "Activity G− (activity against Gram-negative bacteria)", "setting": "Gram-negative bacteria", "value": "N"}]}
{"compound": "Temporin F: temporin, APD ID 98, SEQ ID NO: 15 (FLPLIGKVLSGIL; listed as Rana temporaria)", "values": [{"measurement": "Activity G+ (activity against Gram-positive bacteria)", "setting": "Gram-positive bacteria", "value": "Y/Y"}, {"measurement": "Activity G− (activity against Gram-negative bacteria)", "setting": "Gram-negative bacteria", "value": "Y/Y"}]}
{"compound": "Temporin G: temporin, APD ID 101, SEQ ID NO: 12 (FFPVIGRILNGIL; listed as Rana temporaria)", "values": [{"measurement": "Activity G+ (activity against Gram-positive bacteria)", "setting": "Gram-positive bacteria", "value": "Y/Y"}, {"measurement": "Activity G− (activity against Gram-negative bacteria)", "setting": "Gram-negative bacteria", "value": "Y/Y"}]}
{"compound": "Temporin H: temporin, APD ID 859, SEQ ID NO: 17 (LSPNLLKSLL; listed as Rana temporaria)", "values": [{"measurement": "Activity G+ (activity against Gram-positive bacteria)", "setting": "Gram-positive bacteria", "value": "Y"}, {"measurement": "Activity G− (activity against Gram-negative bacteria)", "setting": "Gram-negative bacteria", "value": "N"}]}
{"compound": "Temporin K: temporin, APD ID 100, SEQ ID NO: 20 (LLPNLLKSLL; listed as Rana temporaria)", "values": [{"measurement": "Activity G+ (activity against Gram-positive bacteria)", "setting": "Gram-positive bacteria", "value": "Y"}, {"measurement": "Activity G− (activity against Gram-negative bacteria)", "setting": "Gram-negative bacteria", "value": "N"}]}
{"compound": "Temporin L: temporin, APD ID 99, SEQ ID NO: 11 (FVQWFSKFLGRIL; listed as Rana temporaria)", "values": [{"measurement": "Activity G+ (activity against Gram-positive bacteria)", "setting": "Gram-positive bacteria", "value": "Y/Y"}, {"measurement": "Activity G− (activity against Gram-negative bacteria)", "setting": "Gram-negative bacteria", "value": "Y/Y"}]}
{"compound": "Temporin-1Lb: temporin, APD ID 110, SEQ ID NO: 13 (NFLGTLINLAKKIM; listed as Rana luteiventris)", "values": [{"measurement": "Activity G+ (activity against Gram-positive bacteria)", "setting": "Gram-positive bacteria", "value": "Y"}, {"measurement": "Activity G− (activity against Gram-negative bacteria)", "setting": "Gram-negative bacteria", "value": "N"}]}
{"compound": "Temporin-SHf: temporin, APD ID 1534, SEQ ID NO: 10 (FFFLSRIF; listed as Pelophylax saharicus)", "values": [{"measurement": "Activity G+ (activity against Gram-positive bacteria)", "setting": "Gram-positive bacteria", "value": "Y/Y"}, {"measurement": "Activity G− (activity against Gram-negative bacteria)", "setting": "Gram-negative bacteria", "value": "Y/Y"}]}
